Experimental data published in patent US9850251B2, “Imidazole derivative used as antiviral agent and use therof in preparation of medicament” (priority 2013, dated 2017).

How the values were obtained:
[1] = RSV long CPE assay (cytopathic effect assay), CC50 toxicity in vitro; format: cell-based; details: human, Hep2 cells, CCK-8 readout, top concentration 100 μM
Description: (§1) Detect EC50 and CC50 values of anti RSV respiratory tract virus compounds through the cytopathic effect assay.
(§2) The cell plate was centrifugated (300 rpm) to make the cells adherent to the wall, placed into a 37° C., 5% CO2 incubator overnight.
(§3) 1) the compound in 100% DMSO underwent a semi logarithmic dilution, then was added to the cell plate with a Echo liquid handler. Ensure that the final concentration of DMSO was 1%;
(§4) 2) Cell-control hole: no compound and viruse were added; virus-control hole: no compound was added.
(§5) 2) add CCK-8 (Dojindo-CK04-20, 6 μL/hole) to 384 well plate with Multidrop® automatic liquid distributor;
(§6) 3) place the plate at a 37° C., 5% CO2 culture incubator for 3˜4 h, read the absorbance value with SPECTRA max 340PC_Molecular device at 450 nm and 630 nm;

[2] = tested on: RSV respiratory tract virus (A long strain); assay: RSV long CPE assay (cytopathic effect assay), EC50; format: cell-based; details: human respiratory syncytial virus, HEp-2, 120 h; Hep2 cells infected with RSV A long strain, 5 days, CCK-8 readout
Description: as §1
Virus strain: RSV respiratory tract virus (A long strain)
as §2, §3, §4
dilute RSV viruses to 100 TCID50/30 μL with medium cultured with 4° C. cells, and then add the diluted viruses to a cell plate (30 μL/hole) with Multidrop® automatic liquid distributor, and then placed into a 37° C., 5% CO2 culture incubator for 5 days.
1) after 5 days, observe the pathological change in each hole.
as §5, §6

Row | Structure (SMILES) | CC50 at 5 days [1] | EC50 [2]
1 | CC(C)OC(=O)N1CC2(C1)C(=O)N(Cc1nc3c(n1CCCC(F)(F)F)CCCC3)c1cccc(Cl)c12 [Embodiment 86, Isopropyl 4′-chloro-2′-oxo-1′-((1-(4,4,4-trifluorobutyl)-4,5,6,7-tetrahydro-1H-benzo[d]imidazol-2-yl)methyl)spiro[azetidine-3,3′-indoline]-1-carboxylate] | > 100000 nM | < 100 nM
2 | CCOC(=O)N1CC2(C1)C(=O)N(Cc1nc3c(n1CCCC(F)(F)F)CCCC3)c1cnccc12 [Embodiment 87, Ethyl 2′-oxo-1′-((1-(4,4,4-trifluorobutyl)-4,5,6,7-tetrahydro-1H-benzo[d]imidazol-2-yl)methyl)-1′,2′-dihydrospiro[azetidine-3,3′-pyrrolo[2,3-c]pyridine]-1-carboxylate] | > 100000 nM | < 100 nM
3 | CC(C)OC(=O)N1CC2(C1)C(=O)N(Cc1nc3c(n1CCCC(F)(F)F)CCCC3)c1cnccc12 [Embodiment 88, Isopropyl 2′-oxo-1′-((1-(4,4,4-trifluorobutyl)-4,5,6,7-tetrahydro-1H-benzo[d]imidazol-2-yl)methyl)-1′,2′-dihydrospiro[azetidine-3,3′-pyrrolo[2,3-c]pyridine]-1-carboxylate] | > 100000 nM | < 100 nM
4 | O=C(C1CC1)N1CC2(C1)C(=O)N(Cc1nc3c(n1CCCC(F)(F)F)CCCC3)c1cnccc12 [Embodiment 89, 1-(Cyclopropanecarbonyl)-1′-((1-(4,4,4-trifluorobutyl)-4,5,6,7-tetrahydro-1H-benzo[d]imidazol-2-yl)methyl)spiro[azetidine-3,3′-pyrrolo[2,3-c]pyridine]-2′(1′H)-one] | > 100000 nM | < 100 nM
5 | O=CN1CC2(C1)C(=O)N(Cc1nc3c(n1CCCC(F)(F)F)CCCC3)c1ccccc12 [Embodiment 90, 2′-Oxo-1′-((1-(4,4,4-trifluorobutyl)-4,5,6,7-tetrahydro-1H-benzo[d]imidazol-2-yl)methyl)spiro[azetidine-3,3′-indoline]-1-carbaldehyde] | > 100000 nM | < 100 nM
6 | CC1(C(=O)N2CC3(C2)C(=O)N(Cc2nc4c(n2CCCC(F)(F)F)CCCC4)c2ccccc23)CC1 [Embodiment 91] | > 100000 nM | < 100 nM
7 | CC(=O)N1CC2(C1)C(=O)N(Cc1nc3c(n1CCCC(F)(F)F)CCCC3)c1ccccc12 [Embodiment 92, 1-Acetyl-1′-((1-(4,4,4-trifluorobutyl)-4,5,6,7-tetrahydro-1H-benzo[d]imidazol-2-yl)methyl)spiro[azetidine-3,3′-indoline]-2′-one] | > 100000 nM | < 100 nM
8 | O=C(C1CC1)N1CC2(C1)C(=O)N(Cc1nc3c(n1CCCC(F)(F)F)CCCC3)c1ccccc12 [Embodiment 93, 1-(Cyclopropanecarbonyl)-1′-((1-(4,4,4-trifluorobutyl)-4,5,6,7-tetrahydro-1H-benzo[d]imidazol-2-yl)methyl)spiro[azetidine-3,3′-indoline]-2′-one] | > 100000 nM | < 100 nM
9 | CCC(=O)N1CC2(C1)C(=O)N(Cc1nc3c(n1CCCC(F)(F)F)CCCC3)c1ccccc12 [Embodiment 94, 1-Propionyl-1′-((1-(4,4,4-trifluorobutyl)-4,5,6,7-tetrahydro-1H-benzo[d]imidazol-2-yl)methyl)spiro[azetidine-3,3′-indoline]-2′-one] | > 100000 nM | < 100 nM
10 | CC(C)C(=O)N1CC2(C1)C(=O)N(Cc1nc3c(n1CCCC(F)(F)F)CCCC3)c1ccccc12 [Embodiment 95, 1-Isobutyryl-1′-((1-(4,4,4-trifluorobutyl)-4,5,6,7-tetrahydro-1H-benzo[d]imidazol-2-yl)methyl)spiro[azetidine-3,3′-indoline]-2′-one] | > 100000 nM | < 100 nM
11 | O=C(C(F)F)N1CC2(C1)C(=O)N(Cc1nc3c(n1CCCC(F)(F)F)CCCC3)c1ccccc12 [Embodiment 96, 1-(2,2-Difluoroacetyl)-1′-((1-(4,4,4-trifluorobutyl)-4,5,6,7-tetrahydro-1H-benzo[d]imidazol-2-yl)methyl)spiro[azetidine-3,3′-indoline]-2′-one] | > 100000 nM | < 100 nM
12 | CS(=O)(=O)N1CC2(C1)C(=O)N(Cc1nc3c(n1CCCC(F)(F)F)CCCC3)c1ccccc12 [Embodiment 97, 1-(Methylsulfonyl)-1′-((1-(4,4,4-trifluorobutyl)-4,5,6,7-tetrahydro-1H-benzo[d]imidazol-2-yl)methyl)spiro[azetidine-3,3′-indoline]-2′-one] | > 100000 nM | < 100 nM
13 | O=C1N(Cc2nc3c(n2CCCC(F)(F)F)CCCC3)c2ccccc2C12CN(S(=O)(=O)C1CC1)C2 [Embodiment 98, 1-(Cyclopropylsulfonyl)-1′-((1-(4,4,4-trifluorobutyl)-4,5,6,7-tetrahydro-1H-benzo[d]imidazol-2-yl)methyl)spiro[azetidine-3,3′-indoline]-2′-one] | > 100000 nM | < 100 nM
14 | CC(C)S(=O)(=O)N1CC2(C1)C(=O)N(Cc1nc3c(n1CCCC(F)(F)F)CCCC3)c1ccccc12 [Embodiment 99, 1-(Isopropylsulfonyl)-1′-((1-(4,4,4-trifluorobutyl)-4,5,6,7-tetrahydro-1H-benzo[d]imidazol-2-yl)methyl)spiro[azetidine-3,3′-indoline]-2′-one] | > 100000 nM | < 100 nM
15 | Cc1nc(CN2C(=O)C3(CN(C(=O)OC(C)C)C3)c3ccccc32)n(CCCCO)c1C [Embodiment 100, Isopropyl 1′-((1-(4-hydroxybutyl)-4,5-dimethyl-1H-imidazol-2-yl)methyl)-2′-oxospiro[azetidine-3,3′-indoline]-1-carboxylate] | > 100000 nM | < 100 nM
16 | CC(C)OC(=O)N1CC2(C1)C(=O)N(Cc1nc3c(n1CCCC(F)(F)F)CCC3)c1ccccc12 [Embodiment 102, Isopropyl 2′-oxo-1′-((1-(4,4,4-trifluorobutyl)-1,4,5,6-tetrahydrocyclopenta[d]imidazol-2-yl)methyl)spiro[azetidine-3,3′-indoline]-1-carboxylate] | > 100000 nM | < 100 nM
17 | CC(C)OC(=O)N1CC2(C1)C(=O)N(Cc1nc3c(n1CCCCO)CCC3)c1ccccc12 [Embodiment 103, Isopropyl 1′-((1-(4-hydroxybutyl)-1,4,5,6-tetrahydrocyclopenta[d]imidazol-2-yl)methyl)-2′-oxospiro[azetidine-3,3′-indoline]-1-carboxylate] | > 100000 nM | < 100 nM
18 | CCOC(=O)N1CC2(C1)C(=O)N(Cc1nc3c(n1CCCC(F)(F)F)CCC3)c1ccccc12 [Embodiment 104, Ethyl 2′-oxo-1′-((1-(4,4,4-trifluorobutyl)-1,4,5,6-tetrahydrocyclopenta[d]imidazol-2-yl)methyl)spiro[azetidine-3,3′-indoline]-1-carboxylate] | > 100000 nM | < 100 nM
19 | CC(C)C(=O)N1CC2(C1)C(=O)N(Cc1nc3c(n1CCCC(F)(F)F)CCC3)c1ccccc12 [Embodiment 105, 1-Isobutyryl-1′-((1-(4,4,4-trifluorobutyl)-1,4,5,6-tetrahydrocyclopenta[d]imidazol-2-yl)methyl)spiro[azetidine-3,3′-indoline]-2′-one] | > 100000 nM | < 100 nM
20 | CS(=O)(=O)N1CC2(C1)C(=O)N(Cc1nc3c(n1CCCC(F)(F)F)CCC3)c1ccccc12 [Embodiment 106, 1-(Methylsulfonyl)-1′-((1-(4,4,4-trifluorobutyl)-1,4,5,6-tetrahydrocyclopenta[d]imidazol-2-yl)methyl)spiro[azetidine-3,3′-indoline]-2′-one] | > 100000 nM | < 100 nM
21 | C=CCCn1c(CN2C(=O)C3(CN(C(=O)OC(C)C)C3)c3ccc(Cl)cc32)nc2c1CCCC2 [Embodiment 107, Isopropyl 1′-((1-(but-3-en-1-yl)-4,5,6,7-tetrahydro-1H-benzo[d]imidazol-2-yl)methyl)-6′-chloro-2′-oxospiro[azetidine-3,3′-indoline]-1-carboxylate] | > 100000 nM | < 100 nM
22 | CC(C)OC(=O)N1CC2(C1)C(=O)N(Cc1nc3c(n1CCCC(F)(F)F)C(=O)CCC3)c1ccccc12 [Embodiment 108, Isopropyl 2′-oxo-1′-((7-oxo-1-(4,4,4-trifluorobutyl)-4,5,6,7-tetrahydro-1H-benzo[d]imidazol-2-yl)methyl)spiro[azetidine-3,3′-indoline]-1-carboxylate] | > 100000 nM | 100 to 1000 nM
23 | CC(C)OC(=O)N1CC2(C1)C(=O)N(Cc1nc3c(n1CCCC(F)(F)F)C(O)CCC3)c1ccccc12 (stereo not drawn) [Embodiment 109, Isopropyl 1′-((7-hydroxy-1-(4,4,4-trifluorobutyl)-4,5,6,7-tetrahydro-1H-benzo[d]imidazol-2-yl)methyl)-2′-oxospiro[azetidine-3,3′-indoline]-1-carboxylate] | > 100000 nM | 100 to 1000 nM
24 | CCOC(=O)N1CC2(C1)C(=O)N(Cc1nc3c(n1CCCC(F)(F)F)CCCC3C)c1ccccc12 (stereo not drawn) [Embodiment 110, Ethyl 1′-((4-methyl-1-(4,4,4-trifluorobutyl)-4,5,6,7-tetrahydro-1H-benzo[d]imidazol-2-yl)methyl)-2′-oxospiro[azetidine-3,3′-indoline]-1-carboxylate] | > 100000 nM | 100 to 1000 nM
